pEC50: −log10 of the molar value. Several values for one entry are separate records, joined by “and”; a condition that tells them apart may be missing. Identical values can stand only once. Activity calls are given as the source filed them. No rule for the calls is given here.
These compounds were tested against Intestinal-type alkaline phosphatase (Homo sapiens) (UniProt P09923) (assay: activation of human intestinal phosphatase enzyme – biochemical, human enzyme for mouse series, mouse IAP activator project, SAR follow-up (AID 493145)). Conditions: purified human intestinal alkaline phosphatase, enzymatic activity.
Intestinal-type alkaline phosphatase (Homo sapiens), sequence (P09923 whole entry, looked up): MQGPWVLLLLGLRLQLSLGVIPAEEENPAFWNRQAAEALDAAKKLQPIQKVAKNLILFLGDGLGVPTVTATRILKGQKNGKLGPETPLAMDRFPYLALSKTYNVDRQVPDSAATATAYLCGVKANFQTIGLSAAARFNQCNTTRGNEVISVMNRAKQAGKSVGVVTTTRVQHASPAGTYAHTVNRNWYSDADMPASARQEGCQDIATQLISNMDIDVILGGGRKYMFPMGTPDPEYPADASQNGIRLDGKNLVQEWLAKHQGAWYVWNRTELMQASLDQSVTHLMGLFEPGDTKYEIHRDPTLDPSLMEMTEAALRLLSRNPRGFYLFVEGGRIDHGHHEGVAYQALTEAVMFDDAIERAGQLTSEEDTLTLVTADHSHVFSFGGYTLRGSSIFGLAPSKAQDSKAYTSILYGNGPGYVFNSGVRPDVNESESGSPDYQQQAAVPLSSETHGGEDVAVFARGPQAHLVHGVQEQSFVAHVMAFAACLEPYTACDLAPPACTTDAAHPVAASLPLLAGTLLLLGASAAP

| SMILES | EC50 | pEC50 |
| --- | --- | --- |
| O=[N+]([O-])c1ccc(NC(=S)NCCC(c2ccccc2)c2ccccc2)cc1 | > 100 µM (inactive) |  |
| N#Cc1c(SCC(=O)Nc2nccs2)sc2c(O)cc(=O)[nH]c12 | > 100 µM (inactive) |  |
| N#Cc1c(SCC(=O)Nc2nncs2)sc2c(O)cc(=O)[nH]c12 | > 100 µM (inactive) |  |
| O=C(N/N=C/C1CC=CCC1)c1cc(O)c(O)c(O)c1 (centres undefined) | > 100 µM (inactive) |  |
| CCOC(=O)NC(=O)CSc1sc2c(O)cc(=O)[nH]c2c1C#N | > 100 µM (inactive) |  |
| O=C(NN=Cc1cccnc1)c1cc(O)c(O)c(O)c1 | > 100 µM (inactive) |  |
| COc1ccc(NC(=S)NCCC(c2ccccc2)c2ccccc2)cc1 |  | 4.28 |
| CCSc1nnc(NC(=O)CSc2sc3c(O)cc(=O)[nH]c3c2C#N)s1 | > 100 µM (inactive) |  |
| COc1ccc(Cl)cc1NC(=O)CSc1sc2c(O)cc(=O)[nH]c2c1C#N | > 100 µM (inactive) |  |
| COc1cc(C(=O)NNC(=S)NC(=O)c2ccc(Cl)cc2)cc(OC)c1OC |  | 4.72 |
| COc1cc(C(=O)NN=Cc2ccccn2)cc(OC)c1OC |  | 4.51 |
| CN1CCC(=NNC(=O)c2cc(O)c(O)c(O)c2)CC1 | > 100 µM (inactive) and 64 µM |  |
| CC(C(=O)Nc1ccc(C(=O)O)c(O)c1)N1C(=O)/C(=C\c2ccco2)SC1=S (centres undefined) | > 100 µM (inactive) |  |
| N#Cc1c(SCC(=O)Nc2ccccc2C(F)(F)F)sc2c(O)cc(=O)[nH]c12 | > 100 µM (inactive) |  |
| CSc1cccc(NC(=O)CCNS(=O)(=O)c2ccc3[nH]c(=O)oc3c2)c1 | > 100 µM (inactive) |  |

The next lines start with the values.

| EC50 | pEC50 | SMILES |
| --- | --- | --- |
| > 100 µM (inactive) |  | CC(C(=O)N(C)C1CCS(=O)(=O)C1)N1C(=O)/C(=C/c2ccco2)SC1=S (centres undefined) |
| > 100 µM (inactive) |  | COc1ccc(N2CCN(C(=O)CN3C(=O)/C(=C\c4ccco4)SC3=S)CC2)cc1 |
| > 100 µM (inactive) |  | O=C(CN1C(=O)/C(=C/c2ccco2)SC1=S)Nc1ccc2nccnc2c1 |
| > 100 µM (inactive) |  | O=C(CCCN1C(=O)/C(=C\c2ccco2)SC1=S)Nc1ccc(O)cc1C(=O)O |
| > 100 µM (inactive) |  | CC(C)C(C(=O)NC1CCS(=O)(=O)C1)N1C(=O)/C(=C\c2ccco2)SC1=S (centres undefined) |
| > 100 µM (inactive) |  | O=C(CN1C(=O)/C(=C/c2ccco2)SC1=S)Nc1ccc(C(=O)O)cc1 |
|  | 4.28 | O=C(CN1C(=O)/C(=C/c2ccco2)SC1=S)NC1C=CS(=O)(=O)C1 (centres undefined) |
|  | 4.37 | CCN(C(=O)CN1C(=O)/C(=C\c2ccco2)SC1=S)C1CCS(=O)(=O)C1 (centres undefined) |
| > 100 µM (inactive) |  | CC(C(=O)Nc1ccc(C(=O)O)cc1)N1C(=O)/C(=C\c2ccco2)SC1=S (centres undefined) |
